Measurements taken from patent US20240360107A1, “AN EIF4A INHIBITOR WITH A NOVEL MECHANISM OF ACTION” (ARIZONA BOARD OF REGENTS ON BEHALF OF THE UNIVERSITY OF …, priority 2021, published 2024).
Entries after “also recorded” stand apart in the source; their conditions may differ.

What was measured:
[1] = molecular target: T1, eIF4A (Homo sapiens, UniProt P60842); experiment: RNA-stimulated malachite green ATPase assay; format: biochemical; parameters: 6xHis with TEV protease site (N, cleaved yes); made in house; host or cells: E. coli BL21-CodonPlus; conditions: for IC50: 750 nM eIF4A, 250 μM ATP, 0.25 mg/mL Yeast RNA, 4 h at 37° C.
T1 sequence (P60842 whole entry): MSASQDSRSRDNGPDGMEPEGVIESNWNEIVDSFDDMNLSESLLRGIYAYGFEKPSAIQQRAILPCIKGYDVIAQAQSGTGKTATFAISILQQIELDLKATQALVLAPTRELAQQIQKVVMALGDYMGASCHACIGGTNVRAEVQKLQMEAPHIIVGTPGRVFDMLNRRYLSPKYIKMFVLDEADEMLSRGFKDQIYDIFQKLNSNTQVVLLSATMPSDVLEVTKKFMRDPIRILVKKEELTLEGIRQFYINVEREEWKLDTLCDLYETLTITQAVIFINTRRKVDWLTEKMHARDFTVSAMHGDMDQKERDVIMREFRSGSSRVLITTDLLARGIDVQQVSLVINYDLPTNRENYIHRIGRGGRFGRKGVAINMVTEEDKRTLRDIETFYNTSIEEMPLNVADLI
Experimental: Human eIF4A protein was produced recombinantly and a greater than 100,000-compound screen for inhibitors was completed using a malachite green ATPase assay (FIG. 11A). […] A stable mixture of yeast RNAs was added in an effort to improve this system and create a more biologically relevant eIF4A assay. eIF4A ATPase activity was accelerated without a statistically significant increase in the background signal in the presence of this RNA (FIG. 11B), and the new conditions gave excellent statistical parameters in a 384-well plate format (FIG. 11C).
ATPase assay. Recombinant WT or mutant eIF4A was added to a clear bottom 384 well plate (Greiner) in ATPase buffer (20 mM Tris pH 7.4, 80 mM KCl, 2.5 mM MgCl2, 1 mM DTT, 1% glycerol). Compounds were added and the plate was incubated at 37° C. for 20 min. ATP/RNA solution was added to afford a 20 μL per well reaction volume with 750 nM eIF4A, 250 μM ATP, and 0.25 mg/mL Yeast RNA (Sigma) for the initial screen and dose responses, and varying concentrations of ATP and RNA for the kinetic assays. The plate was incubated for 4 h at 37° C. for the initial screen and dose responses, and at seven time points (1 hour-7 hours) for kinetic assays. 0.04% v/v (final concentration) Tween-20 was added to a Malachite Green solution, and the Malachite Green (40 μL per well) was added. The solution was incubated for 5 minutes at room temperature and Absorbance at 660 nm was read on a SpectraMax iD5 plate reader (Molecular Devices).

[2] = molecular target: T1, eIF4A; experiment: FAM-RNA fluorescence polarization assay; format: binding; parameters: 6xHis with TEV protease site (N, cleaved yes); made in house; host or cells: E. coli BL21-CodonPlus; conditions: FAM-A(CAA)5 RNA; for IC50: 2 μM eIF4A, read-out: IC50, FAM-RNA FP assay
Experimental: Next, an FP assay was performed with a fluorescent, eIF4A-binding RNA oligo (FAM-A(CAA)5) as the fluorophore. […] This same assay was used to investigate if changing the identity of the RNA fluorophore affected the ability of compound 28 to compete the RNA off eIF4A. […] This is evidence that compound 28 inhibits the RNA-eIF4A interaction by binding eIF4A and not the RNA.
FAM-RNA fluorescence polarization assay. Oligos were purchased from Integrated DNA Technologies using RNase free preparations. Recombinant eIF4A (2 μM) was incubated with 25 nM FAM-labelled RNA for 30 min in FP Buffer (15 mM HEPES-NaOH (pH 8), 100 mM NaCl, 1 mM MgCl2, 15% glycerol, 2 mM DTT, 2 mM AMPPNP) at 22° C. in low-volume black 384 well plates (Greiner). eIF4A was incubated with compound for 20 min prior to the addition of FAM-RNA. Plate was incubated for another 30 min before fluorescence polarization was read at 485:535 nm (Ex:Em) on a SpectraMax iD5 plate reader (Molecular Devices. IC50 values were calculated using GraphPad Prism v6.0.

[3] = molecular target: T2, eIF4A R311E mutant (Homo sapiens, UniProt P60842, R311E); experiment: malachite green ATPase assay, eIF4A mutant; format: biochemical
T2 construct: 6xHis with TEV protease site (N, cleaved yes); made in house; host or cells: E. coli BL21-CodonPlus
T2 sequence (P60842 whole entry R311E): as the sequence (P60842 whole entry) above, with R311E counted along it
From the text: (§1) Furthermore, eIF4A R311K and R311E mutants were produced and tested with compound 28. As expected, compound 28 had no potency toward R311E, as the positively charged arginine is replaced with a negatively charged glutamic acid that repels the carboxylic acid of compound 28. However, compound 28 also had no potency for eIF4A R311K, even though it still maintains its positive charge. This may be attributed to the inability of this lysine to simultaneously provide hydrogen bond donation and ionic interactions to compound 28 due to geometrical constraints. The molecular docking also predicted that the furan of 28 may form a hydrogen bond with T109, and the butyl group may lie within a small hydrophobic groove within the binding pocket (FIG. 6A). Nevertheless, mutations to R110, T158, and R311 causing drastic losses in potency of compound 28 provided strong evidence that this was the correct binding pocket and pose for compound 28. This site, wedged between each RecA-like domain of eIF4A, is a novel binding pocket that has never been accessed by an eIF4A inhibitor.
(§2) ATPase assay. Recombinant WT or mutant eIF4A was added to a clear bottom 384 well plate (Greiner) in ATPase buffer (20 mM Tris pH 7.4, 80 mM KCl, 2.5 mM MgCl2, 1 mM DTT, 1% glycerol). […] The solution was incubated for 5 minutes at room temperature and Absorbance at 660 nm was read on a SpectraMax iD5 plate reader (Molecular Devices).

[4] = molecular target: T3, eIF4A R311K mutant (Homo sapiens, UniProt P60842, R311K); experiment: malachite green ATPase assay, eIF4A mutant; format: biochemical
T3 construct: 6xHis with TEV protease site (N, cleaved yes); made in house; host or cells: E. coli BL21-CodonPlus
T3 sequence (P60842 whole entry R311K): as the sequence (P60842 whole entry) above, with R311K counted along it
From the text: as §1, §2

[5] = tested on: cap-dependent translation of firefly luciferase; experiment: in vitro translation of bicistronic luciferase reporter in rabbit reticulocyte lysate, firefly luciferase; format: biochemical; conditions: Cycloheximide 600 μM, Silvestrol 100 nM
From the text: A bicistronic luciferase reporter ([…]) (FIG. 7B, top) was programmed into rabbit reticulocyte lysates, cellular extracts capable of performing both cap-dependent and Hepatitis C virus (HCV) internal ribosomal entry site (IRES)-mediated translation. eIF4A is the enzymatic driver of cap-dependent translation and is not involved in translation through HCV IRES. Compounds that inhibit eIF4A should inhibit cap-dependent translation of firefly (FF) luciferase while leaving IRES-mediated translation of Renilla (Ren) luciferase relatively unaffected. The inhibitory activities of cycloheximide, silvestrol, and 28 were assessed in this in vitro translation assay (FIG. 7B, bottom). […] The ability of compound 28 to preferentially target cap-dependent translation in a similar manner as silvestrol provides promising evidence that 28 inhibits eIF4A and not other proteins in the general translational machinery.
The dual-luciferase reporter plasmid pSP/(CAG)33/FF/HCV/Ren-pA51 was linearized with BamHI and subsequently in vitro transcribed using the Promega mMessage mMachine SP6 transcription kit, according to manufacturer's specifications. RNA was precipitated with LiCI and resuspended in H2O for use in in vitro translation experiments. Rabbit reticulocyte lysate (RRL) (nuclease-treated, Promega) was used to assess inhibitory effects of 28 on translation of the dual-reporter. Briefly, a reaction consisting of 50% RRL, 30 ng/μL reporter RNA, 10 μM Amino Acid Mixture Minus Methionine, 10 μM Amino Acid Mixture Minus Leucine, […], 1 U/μL RNAseOut (Thermo), and drug (final DMSO concentration 1%) were incubated at 30° C. for 90 minutes. The reaction was quenched with 50 μL 1× Passive Lysis Buffer (Promega), 10 μL of the mix was transferred to a 96-well white plate (Cellstar), and the Dual-Reporter Luciferase Assay System (Promega) was used to generate luminescence according to the manufacturer's instructions. Luminescence was detected using a plate reader (BioTek HT Synergy).

SMILES | IC50 [1] [µM] | competition of fluorescent RNA off eIF4A [2] | IC50 [2] [µM] | potency against eIF4A mutant in ATPase assay [3] | potency against eIF4A mutant in ATPase assay [4] | effect on cap-dependent translation (firefly luciferase) [5] | potency in the eIF4A ATPase assay (in words) ([1]; comparison within the series)
CCCCc1ccc(-c2ccc(-c3cc(C(=O)O)c4cc(Br)ccc4n3)o2)cc1 [Compound 1, 6-bromo-2-(5-(4-butylphenyl)furan-2-yl)quinoline-4-carboxylic acid] | 26.6 ± 2.46 | able to compete the fluorescent RNA off of eIF4A | 161 ± 9.8 | – | – | – | –
CCCCc1ccc(-c2ccc(-c3cc(C(=O)O)c4cc([N+](=O)[O-])ccc4n3)o2)cc1 [Compound 28, 2-(5-(4-butylphenyl)furan-2-yl)-6-nitroquinoline-4-carboxylic acid] | 8.6 ± 0.944 | able to compete the fluorescent RNA off of eIF4A; also recorded: about three-fold more potent than 1 | 58.3 ± 2.5 | no potency | no potency | inhibit cap-dependent translation of firefly luciferase; also recorded: inhibits cap-dependent translation | most potent inhibitor of eIF4A ATPase activity; also recorded: over two-fold more potent than any other molecule previously produced in the series
